We go through 6 compounds from patent publication US6372883B1, “Antiviral medicaments” (Hoffmann-La Roche Inc., priority 1998, dated 2002).

The assay has as its target HCV proteinase (MBP-NS3″Gly 12-NS4A enzyme). Description: HCV proteinase inhibition: cleavage of quenched fluorescence substrate NS4A/B.F peptide by MBP-NS3″Gly 12-NS4A enzyme. The class given is biochemical. Conditions: 10 μM NS4A/B.F peptide, pH 8.5, 10% DMSO, room temperature for 60 minutes; IC50 by manual graph analysis. From the text:
As mentioned earlier, the compounds of formula I and salts of acidic compounds of formula I with bases are inhibitors of proteases of viral origin.
Construction of Plasmid for the Expression of MBP-NS3″Gly 12-NS4A Enzyme in E. coli
The nucleotide sequence of this expression plasmid is given in SEQ ID NO:1 appended hereto and the amino acid sequence of its expression product is given in SEQ ID NO:2 appended hereto. It is based on the pMAL®-c2 vector supplied by New England Biolabs, Inc. (32 Tozer Rd., Beverly, Mass., USA). The principle of the construction was to create an in-frame fusion of the maltose binding protein (MBP) gene supplied by the pMAL-c2 vector, and sequences of the HCV genome necessary for NS3 proteinase activity. These HCV sequences were inserted between the EcoRI and HindIII sites of the pMAL-c2 polylinker (positions 2695 and 3556 respectively of the sequence given in SEQ ID NO:1).
HCV sequences were derived from plasmids pDS 3348-4045 and pBFK 3348-6062, described by Bartenschlager et al, 1993 (Journal of Virology, 67, 3835-3844). Regions encompassing the NS3 proteinase domain (amino acids 1007-1219) and the NS4A domain (amino acids 1658-1711) were isolated and inserted into the pMAL-c2 vector using standard recombinant DNA techniques, including the PCR amplification of required sequences. Between the NS3 and NS4A domains, a linker region was constructed using synthetic oligonucleotides (positions 3343-3390; amino acids 606-621). The resulting plasmid was used to transform E. coli (strain MC1061) cells and expression of the MBP-NS3″Gly 12-NS4A enzyme was induced as described below.
Protein Expression and Purification
E. coli (strain MC1061) cells transformed with the foregoing plasmid were grown in Luria broth containing ampicillin (100 μg/ml) at 37° C. The cells were grown until an optical density of 0.5 at 600 nm had been reached and enzyme expression was then induced by adding 1 mM isopropylthiogalactoside and incubating at 37° C. for a further 3 hours. The cells were harvested by centrifugation and stored at −80° C.
A pellet from […] bacterial culture was resuspended in E.coli lysis buffer (20 mM Tris HCl, pH 7.5, containing 150 mM NaCl, 1 mM EDTA and 10 mM dithiothreitol) and cell lysis was achieved by two passages through a French Pressure cell. The clear supernatant obtained by centrifugation (18000 g, 30 minutes) was then applied to an amylose resin column (4×1 cm) (New England Biolabs) which had been equilibrated with ice-cold 50 mM Tris HCl, pH 8.5, containing 200 mM NaCl, 1 mM dithiothreitol and 5% glycerol. The column was washed thoroughly with the equilibration buffer and bound protein was eluted using the equilibration buffer containing 10 mM maltose. Fractions of 1 ml were collected, with fractions containing the enzyme being pooled and stored at −80° C. Enzyme concentration was assayed by the method of M. B. Bradford, Analytical Biochemistry, 1976, vol. 72, p.248.
Compounds of formula I (routinely prepared as stock solutions in DMSO) were assayed for their ability to inhibit the cleavage of a quenched fluorescence substrate [NS4A/B.F peptide (N-[4-[4-(dimethylamino)phenylazo]benzoyl]-L-α-aspartyl-L-(α-glutamyl-L-methionyl-L-α-glutamyl-L-α-glutamyl-L-cysteinyl-L-alanyl-L-seryl-L-histidyl-N5-[2-(5-sulpho-1-naphthylamino)ethyl]-L-glutamin-amide); Wilkinson et al, Society for General Microbiology Meeting, University of Warwick, England, Mar. 28, 1996] based on the NS4A/4B cleavage site by enzyme MBP-NS3{acute over (ii)}Gly 12-NS4A in microtitre plates as follows:
The enzyme (0.4-0.6 μg) was added to a mixture (200 μl final volume) containing 50 mM Tris HCl, pH 8.5, with 1 mM NaCl, 0.1 mM EDTA, 1 mM dithiothreitol, 0.1% Triton X-100, 10 μM NS4A/B.F peptide and the test compound of formula I prepared as a stock solution in DMSO and added to give a 10% final concentration of DMSO. […]
In turn, “1(RS)-[[N-[N-[N-[N-[N-(4-Acetamidobutyryl)-L-α-aspartyl-L-α-glutamyl]-2-methyl-L-phenylalanyl]-3-methyl-L-valyl]-L-leucyl]-amino]propylboronic acid” showed an IC50 of 230 nM. In other words, the sub-micromolar range.
With “2(RS)-[[N-[N-[N-[N-[N-(3-Carboxypropionyl)-L-α-aspartyl-O-benzyl-L-α-glutamyl]-2-methyl-L-phenylalanyl]-3-methyl-L-valyl]-L-leucyl]amino]-4,4,4-trifluorobutyraldehyde” the figure was 110 nM.
In turn, “2(RS)-[[N-[N-[N-[N-[N-(3-Carboxypropionyl)-L-α-aspartyl-L-α-glutamyl]-2-methyl-L-phenylalanyl]-3-methyl-L-valyl]-O-benzyl-L-tyrosyl]amino]-4,4,4-trifluorobutyraldehyde” returned an IC50 of 200 nM.
With “2(RS)-[[N-[N-[N-[N-[N-(9-Hydroxy-9-fluorenyl)carbonyl]-L-seryl]-O-benzyl-D-seryl]-2-methyl-L-phenylalanyl]-3-methyl-L-valyl]-L-leucyl]-amino]-4,4,4-trifluorobutyraldehyde” the figure was 20 nM; with “2(RS)-[[N-[N-[N-[N2-(N-Acetyl-L-tyrosyl)-N6-nitro-L-arginyl]-2-methyl-L-phenylalanyl]-3-methyl-L-valyl]-L-leucyl]amino]-4,4,4-trifluorobutyraldehyde”, 44 nM.
Regarding `Cc1ccccc1C[C@H](NC(=O)[C@H](NC(=O)[C@H](CS)NC(=O)CCC(=O)O)C(C)C)C(=O)N[C@H](C(=O)N[C@@H](CC(C)C)C(=O)NC(C=O)CC(F)(F)F)C(C)(C)C` (mixture of isomers) [D, 2(RS)-[[N-[N-[N-[N-[N-(3-Carboxypropionyl)-L-cysteinyl]-D-valyl]-2-methyl-L-phenylalanyl]-3-methyl-L-valyl]-L-leucyl]amino]-4,4,4-trifluorobutyraldehyde], 140 nM corresponded to half-maximal inhibition (IC50). Against the preceding compound, the IC50 is about 3.2-fold higher.

As usually defined, the IC50 is the concentration needed to halve the response being measured. A high value points to lower potency.
